What follows are compounds tested on ATH-8 cell line (assay: Tested in vitro for concentration with significant protective effect on ATH8 cells exposed to HIV; No significant effect at concentrations 100 uM). Details: Homo sapiens.
Format: functional, cell-based

Structure (SMILES) | Concentration
Nc1ccn([C@@H]2O[C@H](CO)C[C@@H]2O)c(=O)n1 | No significant effect at concentrations 100 uM
[N-]=[N+]=N[C@@H]1C(O)[C@H](n2ccc(=O)[nH]c2=O)O[C@@H]1CO (some centres undefined) | No significant effect at concentrations 100 uM
COc1ccn([C@@H]2O[C@H](CO)[C@H]3OC23)c(=O)n1 (some centres undefined) | No significant effect at concentrations 100 uM
O=c1ccn([C@@H]2O[C@H](CO)[C@H]3OC23)c(=O)[nH]1 (some centres undefined) | No significant effect at concentrations 100 uM
Cc1cn([C@@H]2O[C@H](CO)[C@H](N=[N+]=[N-])C2O)c(=O)[nH]c1=O (some centres undefined) | No significant effect at concentrations 100 uM
O=c1nc(NO)ccn1[C@@H]1O[C@H](CO)[C@H]2OC12 (some centres undefined) | No significant effect at concentrations 100 uM
[N-]=[N+]=N[C@@H]1C(O)[C@H](n2ccc(N)nc2=O)O[C@@H]1CO (some centres undefined) | No significant effect at concentrations 100 uM
Cc1cn([C@@H]2O[C@H](CO)C[C@@H]2O)c(=O)[nH]c1=O | No significant effect at concentrations 100 uM
C[C@H]1[C@H](O)[C@H](n2ccc(=O)[nH]c2=O)O[C@@H]1CO | No significant effect at concentrations 100 uM
Cc1cn([C@@H]2O[C@H](CO)[C@H]3OC23)c(=O)[nH]c1=O (some centres undefined) | No significant effect at concentrations 100 uM
CNc1ccn([C@@H]2O[C@H](CO)[C@H]3OC23)c(=O)n1 (some centres undefined) | No significant effect at concentrations 100 uM
O=c1[nH]c(=O)n([C@@H]2O[C@H](CO)[C@H]3OC23)cc1Br (some centres undefined) | No significant effect at concentrations 100 uM

Each compound was assayed on ATH-8 cell line (assay: Tested in vitro for concentration with significant protective effect on ATH8 cells exposed to HIV). Details: Homo sapiens.
Format: functional, cell-based

Structure (SMILES) | Concentration
Nc1ccn([C@@H]2O[C@H](CO)[C@H]3OC23)c(=O)n1 (some centres undefined) | 5 µM

Species on record: Homo sapiens
Experiment: Tested in vitro for concentration with significant protective effect on CD4+ cells exposed to HIV
Format: functional
Details: not given

Structure (SMILES) | Concentration
Nc1ccn([C@@H]2O[C@H](CO)[C@H]3OC23)c(=O)n1 (some centres undefined) | 5 µM

Source: ChEMBL document CHEMBL1124165, “1-(2,3-Anhydro-beta-D-lyxofuranosyl)cytosine derivatives as potential inhibitors of the human immunodeficiency virus” (J Med Chem, 1988)
